Laboratory results taken from patent publication US20250282746A1, “HALOGEN-SUBSTITUTED ISOINDOLINE COMPOUND AND USE THEREOF” (CHENGDU FENDI PHARMACEUTICAL CO., LTD., priority 2022, published 2025).
Entries after “also recorded” stand apart in the source; their conditions may differ.

Assays:
MOLM-13 cells [1] = assay: Antiproliferative effect alone and in combination with azacitidine against MOLM-13 cells; type: cell-based; conditions: for IC50: MOLM-13 cells, 72 h
Description: (§1) MOLM-13 cells in the logarithmic growth phase were diluted in a medium RPMI+[…], and NCI-H929 cells were diluted in a medium RPMI+10% FBS. The cells were plated at 4,000 cells/well in 96-well whole black plates (WHB) with 50 μL/well. After plating, the plates were incubated in an incubator at 5% CO2 and 37° C. for 24 h before the compounds were added. The compounds were prepared into a 10 mM stock solution in DMSO and diluted in a culture medium to the desired concentrations (a final DMSO concentration of 0.2%). 50 μL of the compound dilutions at final concentrations of 10,000, 3,333.33, 1,111.11, 370.37, 123.46, 41.15, 13.72, 4.57, 1.52, and 0 nM were added to the 96-well plates containing the cells, that is, each compound was serially diluted to 10 concentrations in duplicate. The plates were incubated at 5% CO2 and 37° C. for 72 h. When pharmaceutical partners were used, the concentrations of azacitidine and dexamethasone were kept at 200 nM and 500 nM respectively, and the compounds were serially three-fold diluted from 10,000 nM. After the incubation was complete, the plates were equilibrated at room temperature for 30 min. CellTiter-Glo® Reagent (Promega G7573) was added at 100 μL/well. The plates were shaken for 12 min on a microplate shaker. The luminescence value was measured at room temperature by the GloMax navigator (Promega GM2010). The IC50 values were calculated using the GraphPad Prism 7 software with the 0 nM control group as 0% inhibition.

MV-4-11-Luc xenograft = assay: Efficacy in acute myeloid leukemia MV-4-11-luc xenograft mouse model; type: in vivo; conditions: for T/C (%) Day 3 / T/C (%) Day 7 / T/C (%) Day 10 / T/C (%) Day 14: 10 mg/kg orally twice daily, NSG mice
Text: In an in vivo efficacy study, female immunocompromised NSG mice aged 6 to 8 weeks were used and the experimental procedures started after the animals were acclimatized in the experimental environment for 7 days. The animals were housed in SPF animal rooms in individually ventilated cages (IVCs) each containing 6 mice. Human acute myeloid leukemia MV-4-11 cells expressing luciferase (MV-4-11-luc) were grafted into mice by tail vein injection (5×10^6 cells/mouse). Seven days after the cell grafting, the mice were subjected to imaging on the IVIS Lumina III small animal imaging system for grouping and administration, and tumor-bearing mice were randomized to the vehicle control group or treatment groups (6 mice/group). The compound (10 mg/kg, twice daily) was administered to the animals in each treatment group by oral gavage. The body weight was measured daily, while mean luminescence was measured after the start of treatment with the compounds or vehicle.
Indicators: The indicators were to investigate whether the tumor growth was inhibited or delayed or the tumor was cured. The tumor size was measured twice weekly using the IVIS Lumina III small animal imaging system. The tumor signals were determined by exposure photons per second. The anti-tumor efficacy of the compounds was evaluated by the tumor proliferation rate T/C (%). T/C %=TRTV/CRTV×100% (TRTV: the RTV of the treatment group; CRTV: the RTV of negative control group; RTV=Vt/V0, where V0 is the tumor signal measured at the time of grouping and administration (i.e., day 0), and Vt is the tumor signal at every measurement). According to the guidelines of the Center for Drug Evaluation, NMPA, a T/C (%) of >40% denotes the absence of efficacy, while a T/C of <40% with P<0.05 denotes the presence of efficacy.

NCI-H929 cells [2] = assay: Antiproliferative effect alone and in combination with dexamethasone against NCI-H929 cells; type: cell-based; conditions: 72 h, read-out: IC50
Description: as §1

hERG potassium channel = molecular target: T1, hERG potassium channel (Homo sapiens, UniProt Q12809); assay: hERG inhibition assay (automated patch clamp, HEK293); type: cell-based; conditions: 3 μM, HEK293 cells, QPatch
T1 construct: expressed in transfected cells; host or cells: HEK293 cells
T1 sequence (Q12809 whole entry): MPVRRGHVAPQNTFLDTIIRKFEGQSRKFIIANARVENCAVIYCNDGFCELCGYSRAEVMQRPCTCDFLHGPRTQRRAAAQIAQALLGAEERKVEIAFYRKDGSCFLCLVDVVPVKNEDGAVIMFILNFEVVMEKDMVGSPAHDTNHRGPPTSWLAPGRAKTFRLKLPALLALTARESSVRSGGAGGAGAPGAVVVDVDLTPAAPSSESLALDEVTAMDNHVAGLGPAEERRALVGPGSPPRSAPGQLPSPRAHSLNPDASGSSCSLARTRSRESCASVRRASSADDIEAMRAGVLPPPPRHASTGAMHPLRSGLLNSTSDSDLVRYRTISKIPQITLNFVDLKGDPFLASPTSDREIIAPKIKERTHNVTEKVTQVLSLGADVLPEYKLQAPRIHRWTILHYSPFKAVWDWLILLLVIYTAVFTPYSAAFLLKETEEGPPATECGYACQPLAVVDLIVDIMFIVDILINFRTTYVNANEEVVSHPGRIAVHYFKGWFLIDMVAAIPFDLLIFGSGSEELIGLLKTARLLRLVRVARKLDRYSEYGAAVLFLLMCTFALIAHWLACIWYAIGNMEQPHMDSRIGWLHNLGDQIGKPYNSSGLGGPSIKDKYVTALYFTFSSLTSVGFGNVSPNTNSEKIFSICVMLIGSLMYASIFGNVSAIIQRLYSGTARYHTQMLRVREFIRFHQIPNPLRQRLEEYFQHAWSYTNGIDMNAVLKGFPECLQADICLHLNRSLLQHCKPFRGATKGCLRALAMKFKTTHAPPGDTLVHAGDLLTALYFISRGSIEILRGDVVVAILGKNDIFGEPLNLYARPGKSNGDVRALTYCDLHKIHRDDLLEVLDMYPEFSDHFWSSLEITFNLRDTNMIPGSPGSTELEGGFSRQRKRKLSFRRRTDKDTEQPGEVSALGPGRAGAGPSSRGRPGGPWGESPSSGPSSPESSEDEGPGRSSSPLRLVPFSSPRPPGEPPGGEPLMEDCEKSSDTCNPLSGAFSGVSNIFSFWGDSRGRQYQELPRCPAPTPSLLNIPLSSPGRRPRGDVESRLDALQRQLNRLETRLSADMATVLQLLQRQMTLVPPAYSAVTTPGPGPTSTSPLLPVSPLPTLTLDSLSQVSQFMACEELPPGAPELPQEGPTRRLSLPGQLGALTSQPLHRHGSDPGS
Text: The rapidly activating potassium channel encoded by human ether-a-go-go-related gene (hERG) is an important ion channel involved in the formation of cardiac action potential phase 3 repolarization. Blocking of the hERG channel by drugs can lead to the prolongation of cardiac repolarization and thus a prolonged QT interval in the electrocardiogram, known as long QT syndrome. Drug-induced delayed ventricular repolarization may in some cases trigger fatal arrhythmia-torsade de pointes-type ventricular tachycardia.
This assay was used to measure the effect of compounds on the hERG potassium channel clones expressed in human embryonic kidney (HEK293) cells. The assay procedures are as follows: the cells were transferred into a HEPES-buffered saline in glass-lined 96-well plates and exposed to an appropriate amount of test compound or control solution at various concentrations for 3 min. The test compounds were diluted in 0.3% DMSO.

MV-4-11 cells [3] = assay: Apoptotic effect on AML cells (annexin/PI flow cytometry); type: cell-based, human; conditions: 1 μM and 100 nM
Description: MV-4-11 cells in the logarithmic growth phase were diluted in a growth medium and plated at 600,000 cells/well in 6-well plates with 2 mL/well and the compounds were added. The cells were collected, washed twice with pre-cooled PBS, and resuspended in 100 μL of 1× annexin-binding buffer. 5 μL of FITC and 1 μL of 100 µg/mL PI were added. The cells were incubated at room temperature in the dark for 15 min and transferred on ice, and 400 μL of 1× annexin-binding buffer was added. The mixture was gently mixed and subjected to flow cytometry.

U937 cells = assay: Antiproliferative activity against various tumor cells: U937; type: cell-based; conditions: Homo sapiens, U-937; U937 cells, 72 h; read-out: Antiproliferative activity IC50 U937
Description: (§2) U937, NCI-H929, AML-2, and MOLM-13 cells in the logarithmic growth phase were diluted in media RPMI+10% FBS, RPMI+10% FBS, MEMα+20% FBS, RPMI+20% FBS, respectively, and plated at 4,000 cells/well in 96-well whole black plates (WHB) with 50 μL/well. After plating, the plates were incubated in an incubator at 5% CO2 and 37° C. for 24 h before the compounds were added. The compounds were prepared into a 10 mM stock solution in DMSO and diluted in a culture medium to the desired concentrations (a final DMSO concentration of 0.2%). […] The plates were incubated at 5% CO2 and 37° C. for 72 h. After the incubation was complete, the plates were equilibrated at room temperature for 30 min. CellTiter-Glo® Reagent (Promega G7573) was added at 100 μL/well. The plates were shaken for 12 min on a microplate shaker. The luminescence value was measured at room temperature by the GloMax navigator (Promega GM2010).

MOLM-13 cells [4] = assay: Antiproliferative activity against various tumor cells: MOLM-13; type: cell-based; conditions: Homo sapiens; MOLM-13 cells, 72 h; read-out: Antiproliferative activity IC50 MOLM-13
Description: as §2

AML-2 cells = assay: Antiproliferative activity against various tumor cells: AML-2; type: cell-based; conditions: AML-2 cells, 72 h; read-out: Antiproliferative activity IC50 AML-2
Description: as §2

GSPT1 protein = molecular target: T2, GSPT1 protein (Homo sapiens, UniProt P15170); assay: Degradation of GSPT1 protein in NB-4 cells (Western blot); type: cell-based; conditions: NB-4 cells, compound 1 μM, 6 h; read-out: GSPT1 degradation
T2 construct: The whole cell lysate was prepared using a RIPA lysis buffer; endogenous in cells; host or cells: NB-4 cells
T2 sequence (P15170 whole entry): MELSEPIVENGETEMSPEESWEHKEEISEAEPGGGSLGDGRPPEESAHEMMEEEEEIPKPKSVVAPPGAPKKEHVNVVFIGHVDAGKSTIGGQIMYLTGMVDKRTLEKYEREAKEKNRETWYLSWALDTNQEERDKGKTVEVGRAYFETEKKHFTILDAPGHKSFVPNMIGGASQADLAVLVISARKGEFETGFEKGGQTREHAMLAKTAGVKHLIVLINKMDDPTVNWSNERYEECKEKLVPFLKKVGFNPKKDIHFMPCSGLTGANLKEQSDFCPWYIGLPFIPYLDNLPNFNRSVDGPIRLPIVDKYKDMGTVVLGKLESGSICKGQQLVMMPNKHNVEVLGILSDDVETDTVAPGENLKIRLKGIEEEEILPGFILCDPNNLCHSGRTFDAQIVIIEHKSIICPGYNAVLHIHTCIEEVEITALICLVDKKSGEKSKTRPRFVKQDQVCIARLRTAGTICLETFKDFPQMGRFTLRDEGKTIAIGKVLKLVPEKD
Method in brief: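 GSPT1 levels were read by Western blot (4-20% SDS-PAGE, PVDF, overnight primary antibody at 4 °C) on lysates of NB-4 cells.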

NCI-H929 cells [5] = assay: Antiproliferative activity against various tumor cells: NCI-H929; type: cell-based; conditions: Homo sapiens; NCI-H929 cells, 72 h; read-out: Antiproliferative activity IC50 NCI-H929
Description: as §2

MV-4-11 cells [6] = assay: Antiproliferative activity against MV-4-11 cells (CellTiter-Glo, 72 h); type: cell-based; conditions: Homo sapiens, MV4-11; MV-4-11 cells, 72 h; read-out: Antiproliferative activity IC50
Method in brief: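 MV-4-11 cells in RPMI + 10% FBS plated at 5,000 cells/well and pre-incubated 24 h at 37 °C, 5% CO2. Compounds were then added (final DMSO 0.2%) and cells incubated 72 h. Viability was read by CellTiter-Glo luminescence after 30 min equilibration at room temperature.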

c-Myc = molecular target: T3, c-Myc (Homo sapiens, UniProt P01106); assay: Degradation of c-MYC protein in HL-60 cells (Western blot); type: cell-based; conditions: 4 h
T3 construct: The whole cell lysate was prepared using a RIPA lysis buffer; endogenous in cells; host or cells: HL-60 cells
T3 sequence (P01106 whole entry): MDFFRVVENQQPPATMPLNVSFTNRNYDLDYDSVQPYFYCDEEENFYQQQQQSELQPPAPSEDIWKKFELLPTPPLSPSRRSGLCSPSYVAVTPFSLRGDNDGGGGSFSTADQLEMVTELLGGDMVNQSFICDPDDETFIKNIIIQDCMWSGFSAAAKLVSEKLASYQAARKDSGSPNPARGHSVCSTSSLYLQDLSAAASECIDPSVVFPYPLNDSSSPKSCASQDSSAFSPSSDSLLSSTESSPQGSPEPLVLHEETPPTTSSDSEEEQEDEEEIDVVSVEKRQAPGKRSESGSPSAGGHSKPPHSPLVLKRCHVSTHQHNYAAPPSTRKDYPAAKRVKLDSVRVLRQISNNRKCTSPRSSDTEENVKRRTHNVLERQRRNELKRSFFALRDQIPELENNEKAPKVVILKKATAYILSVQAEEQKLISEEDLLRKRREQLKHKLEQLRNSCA
Description: (§3) […] of DMSO and the compounds were added, and the mixture was incubated in an incubator at 5% CO2 and 37° C. for 4 h. The cells were centrifuged, and the culture medium was discarded. PBS was added for washing and then discarded. The whole cell lysate was prepared using a RIPA lysis buffer containing a protease inhibitor cocktail and a phosphatase inhibitor, and incubated on ice for 30 min. The mixture was centrifuged, and the cell debris was discarded. The whole cell lysate supernatant was collected and transferred to a fresh EP tube. Samples were prepared using a loading buffer after a BCA protein assay. The samples were incubated in a metal bath at 100° C. for 10 min. The samples were electrophoretically separated from proteins on a 4-20% precast gel (SDS-PAGE gel), transferred to a PVDF membrane, blocked with 5% NFDM/TBST for 1 h at room temperature, co-incubated overnight at 4° C. with the primary antibody, and co-incubated for 2 h at room temperature with the secondary antibody on the next day. The signals were detected on the […]™ imaging system.

CK1α = molecular target: T4, CK1α (Homo sapiens, UniProt P48729); assay: Degradation of CK1α protein in HL-60 cells (Western blot); type: cell-based; conditions: 4 h
T4 construct: The whole cell lysate was prepared using a RIPA lysis buffer; endogenous in cells; host or cells: HL-60 cells
T4 sequence (P48729 whole entry): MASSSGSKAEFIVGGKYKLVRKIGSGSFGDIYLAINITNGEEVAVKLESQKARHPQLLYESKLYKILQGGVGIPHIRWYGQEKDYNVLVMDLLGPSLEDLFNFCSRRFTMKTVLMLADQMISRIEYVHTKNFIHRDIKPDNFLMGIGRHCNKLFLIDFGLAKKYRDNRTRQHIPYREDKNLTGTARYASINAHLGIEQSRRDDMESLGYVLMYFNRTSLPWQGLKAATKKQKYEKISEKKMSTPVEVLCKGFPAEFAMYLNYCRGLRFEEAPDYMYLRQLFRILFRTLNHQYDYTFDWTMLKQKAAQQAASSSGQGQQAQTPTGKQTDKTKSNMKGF
Description: as §3

Compound | T/C (%) Day 3 (MV-4-11-Luc xenograft) [%] | T/C (%) Day 7 (MV-4-11-Luc xenograft) [%] | T/C (%) Day 10 (MV-4-11-Luc xenograft) [%] | T/C (%) Day 14 (MV-4-11-Luc xenograft) [%] | hERG inhibition rate (hERG potassium channel) [%] | apoptotic effect on MV-4-11 cells (MV-4-11 cells [3]; treated for 7 h, 10 µM) | apoptotic effect on MV-4-11 cells (MV-4-11 cells [3]; treated for 16 h) | IC50 (U937 cells) [nM] | IC50 (MOLM-13 cells [4]) [nM] | IC50 (AML-2 cells) [nM] | inhibition at 1 µM (GSPT1 protein) [%] | IC50 (NCI-H929 cells [5]) [nM] | IC50 (MV-4-11 cells [6]) [nM] | also measured
Nc1ncn([C@@H]2O[C@H](CO)[C@@H](O)[C@H]2O)c(=O)n1 [Azacitidine, reference compound] |  |  |  |  |  |  |  |  |  |  |  |  |  | antiproliferative activity against MOLM-13 cells at fixed concentration (MOLM-13 cells [1]; 200 nM): no significant antiproliferative activity; IC50 (MOLM-13 cells [1]; Homo sapiens, compound alone): 751 nM
O=C1CCC(N2Cc3cc(CNC(=O)C(F)(F)c4ccc(Cl)cc4)ccc3C2=O)C(=O)N1 (stereo not drawn) [CC-90009, reference compound] | 100.80 | 133.08 | 127.05 | 132.90 | 66 |  |  |  |  |  |  |  |  | tumor inhibitory effect in mouse xenograft model (MV-4-11-Luc xenograft; oral administration, 10 mg/kg twice daily, within 14 days, 10 mg/kg): no tumor inhibitory effects; also recorded: no tumor inhibitory activity; IC50 (NCI-H929 cells [2]; compound alone): 3200 nM; IC50 (NCI-H929 cells [2]; in combination with 500 nM dexamethasone): 77.3 nM; IC50 (MOLM-13 cells [1]; compound alone): 1420 nM; IC50 (MOLM-13 cells [1]; in combination with 200 nM azacitidine): 43.9 nM
O=C1CCC(N2Cc3c(ccc(CNC(=O)c4cc5cc(F)ccc5o4)c3F)C2=O)C(=O)N1 (stereo not drawn) [FDAB-46] |  |  |  |  |  | no apoptotic effect | apoptosis was induced | 10 to 100 | 100 to 1000 | 100 to 1000 | > 80 | 1 to 10 | 1 to 10 | 
Cc1ccc(C(=O)NCc2ccc3c(c2F)CN(C2CCC(=O)NC2=O)C3=O)cc1 (stereo not drawn) [FDAB-65] | 4.58 | 1.40 | 1.01 | 0.78 | 11 | no apoptotic effect | apoptosis was induced | 10 to 100 | 100 to 1000 | 100 to 1000 | > 80 | 1 to 10 | 10 to 100 | 
Cc1ccc(C(=O)NCc2ccc3c(c2F)CN(C2CCC(=O)NC2=O)C3=O)cc1F (stereo not drawn) [FDAB-120] | 6.69 | 1.58 | 2.00 | 2.12 | 13 |  |  |  |  |  | > 80 |  | 10 to 100 | 
CCCCCCCCCCCCSC(=S)SC(C)(C#N)CCC(=O)NCc1ccc2c(c1F)CN(C1CCC(=O)NC1=O)C2=O (stereo not drawn) [FDAB-164] |  |  |  |  |  |  |  |  |  |  | > 80 |  | < 1 | c-Myc degradation (c-Myc; 10 nM): D (D denotes a percentage of degradation less than 25%); c-Myc degradation (c-Myc; 100 nM): C (C denotes a percentage of degradation less than 500% but not less than 250%); c-Myc degradation (c-Myc; 1000 nM): C (C denotes a percentage of degradation less than 500% but not less than 250%); CK1α degradation (CK1α; 10 nM): D (D denotes a percentage of degradation less than 25%); CK1α degradation (CK1α; 100 nM): C (C denotes a percentage of degradation less than 500% but not less than 250%); CK1α degradation (CK1α; 1000 nM): C (C denotes a percentage of degradation less than 500% but not less than 250%)
